{"source": "patent US20240424019A1", "about": "“SHP1 MODIFIED DENDRITIC CELLS AND EXTRACELLULAR VESICLES DERIVED THEREFROM AND ASSOCIATED METHODS” (BOARD OF REGENTS, THE UNIVERSITY OF TEXAS SYSTEM, priority 2021, published 2024)", "key": {"human iPSC-DCs": {"test_system": "human iPSC-DCs", "assay": "Activation of human iPSC-derived DCs by flow cytometry", "assay_type": "cell-based", "settings": "vitamin E 50 μg/ml or TPI-1 1 μg/ml, 72 h, gated on CD11c+", "text": "FIG. 10A: Representative high magnification photomicrographs (100×, 200×, 400×) illustrating the morphology of colonies and individual cells of fully differentiated iPSC-derived DCs (iPSC-DCs) displaying characteristic DC morphology consisting of protrusions and veils of cytoplasm at the end of the differentiation procedure (day 23) after using the differentiation protocol for the addition and withdrawal of growth factors and cytokines. FIG. 10B: Phenotypic characterization of generated human iPSC-DCs. Representative flow cytometry analysis depicting the expression of DC lineage markers by iPSC-DCs gated on the CD11c+ population. Levels of expression of individual markers are shown as red histograms, while non-specific staining by isotype controls is shown as light blue histograms. FIG. 10C: Phenotypic characterization of human iPSC-DCs after treatment with vitamin E or TPI-1 to inhibit SHP1. Representative flow cytometry analysis (left panel) and quantification (right panel) depicting the expression of indicated activity markers by iPSC-DCs gated on the CD11c+population with the treatment of vehicle, vitamin E (50 μg/ml) or TPI-1 (1 μg/ml) for 72 h.\nWe explored the feasibility of differentiating populations of primary DCs from iPSCs and characterized the phenotype of iPSC-DC with the pharmacological inhibition of SHP1 by vitamin E or TPI-1. […]"}, "B16-GMCSF melanoma": {"test_system": "B16-GMCSF melanoma", "assay": "B16-GMCSF melanoma model", "assay_type": "in vivo, mouse", "settings": "intradermal implants, C57BL/6 mice, 3 mg/kg oral daily, day 19, vs vehicle, n=5"}}}
{"smiles": "O=C1C=CC(=O)C(c2cc(Cl)ccc2Cl)=C1", "note": "[TPI-1, 2-(2,5-dichlorophenyl)-2,5-cyclohexadiene-1,4-dione]", "values": [{"measurement": "expression of DC activation markers on iPSC-DCs", "setting": "human iPSC-DCs", "value": "increased expression of DC activation markers CD40 and CD86"}, {"measurement": "mean tumor volume", "setting": "B16-GMCSF melanoma", "value": "significantly smaller tumor volume"}]}
